The source of these data is PMC10482691, “LTP induction by structural rather than enzymatic functions of CaMKII” (Nature, 2023).

The test system of assay [1] is GFP–paCaMKII F89G in hippocampal neurons. Kind of assay: paCaMKII F89G photoactivation: synaptic enrichment in hippocampal neurons. The assay is classed as cell-based. The method, then:
(§1) Neurons were wrapped in aluminium foil immediately following transfection and only exposed to red light in imaging. One image was then taken of each neuron to serve as a pre-photoactivation baseline. Immediately following this baseline image, paCaMKII was globally photoactivated with a 405 nm laser pulse (100 ms exposure, 75% laser power) once every 10 s for a total of 60 s. Neurons were then imaged 15 min after stimulation and assessed for CaMKII synaptic enrichment and dendritic spine growth.
(§2) Neuronal cultures were transfected on DIV 15–18 and imaged 24–48 h later. […] Two-dimensional maximum-intensity projection images were then generated and analysed using a custom-build programme in ImageJ. The programme utilizes combinatorial thresholding to mask regions of the cell that contain high-intensity puncta of postsynaptic density protein 95 (PSD95; a marker of the post-synaptic side of excitatory synapses in dendritic spines) and regions of the dendritic shaft that contain no fluorescence intensity of PSD95. As a measure of synaptic enrichment, the ratio of mean CaMKII fluorescence intensity of the PSD95 mask to the mean CaMKII fluorescence intensity in the dendritic shaft mask is measured. Spine growth was assessed by measuring the changes in mCherry cell fill fluorescence intensity within dendritic spine divided by the initial fluorescence intensity (F/F0).

Assay [2] deals with T1, GFP–CaMKII F89G / mCh-GluN2B-c tail in HEK293 cells (Homo sapiens, UniProt Q9UQM7, F89G).
T1 construct: expressed in transfected cells; host or cells: HEK293
T1 sequence (Q13224 836-1484 S1303A): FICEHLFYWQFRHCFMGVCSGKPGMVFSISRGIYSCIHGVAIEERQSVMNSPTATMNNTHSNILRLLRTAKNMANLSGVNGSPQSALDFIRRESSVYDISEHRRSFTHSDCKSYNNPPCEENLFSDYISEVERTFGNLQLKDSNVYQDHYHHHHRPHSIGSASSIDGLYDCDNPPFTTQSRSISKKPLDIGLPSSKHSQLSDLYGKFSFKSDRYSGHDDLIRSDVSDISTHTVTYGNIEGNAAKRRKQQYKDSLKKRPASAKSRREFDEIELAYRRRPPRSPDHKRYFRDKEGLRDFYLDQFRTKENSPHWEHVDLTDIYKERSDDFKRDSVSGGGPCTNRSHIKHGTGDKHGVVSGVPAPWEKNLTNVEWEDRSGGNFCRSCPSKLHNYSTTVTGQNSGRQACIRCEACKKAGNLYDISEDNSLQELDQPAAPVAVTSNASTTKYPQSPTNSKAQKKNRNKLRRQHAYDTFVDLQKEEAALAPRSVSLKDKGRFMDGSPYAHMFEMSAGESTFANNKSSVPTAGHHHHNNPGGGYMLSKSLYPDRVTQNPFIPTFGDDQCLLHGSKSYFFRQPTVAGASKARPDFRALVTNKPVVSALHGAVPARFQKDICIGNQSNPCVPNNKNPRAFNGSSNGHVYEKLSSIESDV
T1 sequence (Q9UQM7 whole entry F89G): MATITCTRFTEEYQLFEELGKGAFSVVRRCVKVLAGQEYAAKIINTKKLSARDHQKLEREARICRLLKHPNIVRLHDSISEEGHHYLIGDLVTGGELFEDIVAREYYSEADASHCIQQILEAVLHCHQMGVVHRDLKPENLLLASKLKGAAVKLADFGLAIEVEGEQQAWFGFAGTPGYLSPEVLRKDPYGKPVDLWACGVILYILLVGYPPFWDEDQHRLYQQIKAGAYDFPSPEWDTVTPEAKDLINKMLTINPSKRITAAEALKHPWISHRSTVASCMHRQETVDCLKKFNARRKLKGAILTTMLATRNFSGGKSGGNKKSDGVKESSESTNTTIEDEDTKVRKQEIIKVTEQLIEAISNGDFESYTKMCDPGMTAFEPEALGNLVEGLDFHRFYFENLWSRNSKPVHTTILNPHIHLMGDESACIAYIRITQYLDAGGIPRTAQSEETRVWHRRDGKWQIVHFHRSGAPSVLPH
Kind of assay: Ionomycin-induced colocalization of GFP–CaMKII F89G and mCherry-2BC in HEK293 cells. Format: cell-based. The following applies: 10 µM NM-PP1.

The target of the next assay is PDGFRβ(h) (Homo sapiens, UniProt P09619). Kind of assay: Kinase selectivity panel (residual activity at 1 μM). Format: biochemical. The following applies: inhibitor at 1 μM; read-out: residual kinase activity in % of maximal activity.
Chain of PDGFRβ(h) (P09619 33-1106): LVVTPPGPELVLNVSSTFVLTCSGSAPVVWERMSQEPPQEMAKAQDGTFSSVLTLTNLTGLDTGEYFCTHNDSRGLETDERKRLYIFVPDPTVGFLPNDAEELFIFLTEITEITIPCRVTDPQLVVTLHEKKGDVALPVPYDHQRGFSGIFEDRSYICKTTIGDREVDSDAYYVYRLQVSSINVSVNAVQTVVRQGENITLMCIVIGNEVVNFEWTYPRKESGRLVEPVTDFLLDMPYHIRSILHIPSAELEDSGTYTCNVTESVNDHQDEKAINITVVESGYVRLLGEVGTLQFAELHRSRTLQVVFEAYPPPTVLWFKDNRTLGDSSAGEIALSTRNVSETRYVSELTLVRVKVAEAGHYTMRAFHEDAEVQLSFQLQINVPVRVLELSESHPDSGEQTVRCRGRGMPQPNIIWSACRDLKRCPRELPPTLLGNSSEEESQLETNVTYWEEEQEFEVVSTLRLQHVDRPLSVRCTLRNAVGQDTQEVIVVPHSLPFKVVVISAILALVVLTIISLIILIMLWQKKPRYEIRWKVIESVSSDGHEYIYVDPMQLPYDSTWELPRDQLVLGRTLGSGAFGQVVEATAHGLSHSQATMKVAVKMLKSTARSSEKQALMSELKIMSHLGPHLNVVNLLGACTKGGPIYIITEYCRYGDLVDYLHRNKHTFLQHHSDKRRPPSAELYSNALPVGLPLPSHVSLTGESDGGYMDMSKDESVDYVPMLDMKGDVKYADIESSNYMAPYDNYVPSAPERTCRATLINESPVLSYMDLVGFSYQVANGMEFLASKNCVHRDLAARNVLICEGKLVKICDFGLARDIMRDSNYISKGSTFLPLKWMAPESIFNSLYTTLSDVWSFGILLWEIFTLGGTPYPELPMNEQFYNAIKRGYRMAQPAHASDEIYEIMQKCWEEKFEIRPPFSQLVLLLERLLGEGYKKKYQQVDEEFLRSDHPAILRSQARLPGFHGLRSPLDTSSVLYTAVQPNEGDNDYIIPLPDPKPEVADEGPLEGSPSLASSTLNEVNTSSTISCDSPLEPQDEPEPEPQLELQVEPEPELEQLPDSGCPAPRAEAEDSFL
For another assay, the target named is AMPKα1(h) (Homo sapiens, UniProt Q13131). Described as above. The assay is classed as biochemical. The following applies: inhibitor at 1 μM; read-out: residual kinase activity in % of maximal activity.
Chain of AMPKα1(h) (Q13131 whole entry): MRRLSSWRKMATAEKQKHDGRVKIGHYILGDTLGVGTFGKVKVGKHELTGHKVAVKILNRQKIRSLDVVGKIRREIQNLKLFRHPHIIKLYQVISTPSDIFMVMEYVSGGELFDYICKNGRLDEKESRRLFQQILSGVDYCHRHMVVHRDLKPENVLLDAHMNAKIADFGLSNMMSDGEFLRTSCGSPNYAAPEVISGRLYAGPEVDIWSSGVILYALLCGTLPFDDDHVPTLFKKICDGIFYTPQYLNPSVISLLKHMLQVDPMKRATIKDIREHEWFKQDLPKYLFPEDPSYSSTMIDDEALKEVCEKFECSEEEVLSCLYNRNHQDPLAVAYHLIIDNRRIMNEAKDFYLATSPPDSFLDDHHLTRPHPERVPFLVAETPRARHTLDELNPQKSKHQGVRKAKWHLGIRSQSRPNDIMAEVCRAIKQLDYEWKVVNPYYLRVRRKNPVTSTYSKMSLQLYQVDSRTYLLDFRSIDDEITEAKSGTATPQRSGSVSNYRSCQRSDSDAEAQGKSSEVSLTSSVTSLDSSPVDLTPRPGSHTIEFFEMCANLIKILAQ
Chain of AMPKα1(h) (Q9Y478 whole entry partner): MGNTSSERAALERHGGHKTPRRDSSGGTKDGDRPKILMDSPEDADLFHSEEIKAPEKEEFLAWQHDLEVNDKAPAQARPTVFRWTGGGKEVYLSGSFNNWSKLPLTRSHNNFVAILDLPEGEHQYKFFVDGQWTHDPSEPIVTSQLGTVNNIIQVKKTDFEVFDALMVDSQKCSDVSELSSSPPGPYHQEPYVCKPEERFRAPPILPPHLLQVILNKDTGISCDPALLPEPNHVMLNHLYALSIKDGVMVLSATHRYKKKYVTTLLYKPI
Chain of AMPKα1(h) (P54619 whole entry partner): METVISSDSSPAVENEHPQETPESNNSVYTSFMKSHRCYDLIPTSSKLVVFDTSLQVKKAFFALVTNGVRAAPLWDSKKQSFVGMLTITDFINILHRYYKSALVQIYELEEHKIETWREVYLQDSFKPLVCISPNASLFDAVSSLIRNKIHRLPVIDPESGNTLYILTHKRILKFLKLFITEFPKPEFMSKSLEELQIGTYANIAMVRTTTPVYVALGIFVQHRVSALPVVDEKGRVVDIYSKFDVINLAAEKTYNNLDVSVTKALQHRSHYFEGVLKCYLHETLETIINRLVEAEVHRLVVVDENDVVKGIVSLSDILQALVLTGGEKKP
A further assay addresses purified CaMKII (Rattus norvegicus, UniProt P11275). The assay is described as follows: In vitro kinase reaction: CaMKII phosphorylation of GST-2BC (GluN2B) S1303. The assay is classed as biochemical. The method, then:
CaMKII-mediated phosphorylation of GluA1 S831 or GluN2B S1303 was measured by in vitro kinase reaction with a purified GST–GluA1 C-terminal tail or GST-GluN2B C-terminal tail. Reactions contained 40 nM CaMKII, 1 μM GST–GluA1, 50 mM PIPES, pH 7.1, 2 mM CaCl2, 10 mM MgCl2, 1 μM calmodulin, 1–4 mM ATP and 1 μM okadaic acid. Negative controls were prepared without ATP. Reactions were done at 30 °C for 20 s; reactions were stopped by adding SDS loading buffer and incubation in a boiling water bath for 5 min. GST, phospho-S831, CaMKII, phospho-T286 or phospho-S1303 were detected in the samples by immunoblot analysis.
Extended Data Fig. 3 No difference in LTP in WT mice when CaMKII is inhibited by either 10 or 30 μM AS283. Data are presented as mean values +/− SEM. a, 2x HFS potentiates the CA3-CA1 Schaffer collateral pathway in WT mice when CaMKII enzymatic activity is inhibited by 10 or 30 μM AS283 (incubated for 15 min prior to HFS, and washed out 5 min after). b, Quantification of LTP in WT mice after 10 or 30 μM AS283 (n = 3,7 hippocampal slices; Mann-Whitney test). p = 0.3833. c, Representative immunoblot and quantification of CaMKII T286 phosphorylation in dissociated hippocampal cultures after cLTP and inhibition by 10 μM AS283 (n = 4 independent cell preparations; one-way ANOVA, Tukey’s multiple comparisons test). […]

Another assay addresses PDK1(h) (Homo sapiens, UniProt O15530). The assay is described as follows: Kinase selectivity panel (residual activity at 1 μM). The following applies: inhibitor at 1 μM; read-out: residual kinase activity in % of maximal activity. Format: biochemical.
For assay [3], the system named is GFP–paCaMKII T286A in hippocampal neurons. The assay is described as follows: paCaMKII T286A photoactivation: synaptic enrichment in hippocampal neurons. Format: cell-based. The method, then: as §1, §2
The next assay addresses PKBγ(h) (Homo sapiens, UniProt Q9Y243). The assay is described as follows: Kinase selectivity panel (residual activity at 1 μM). The following applies: inhibitor at 1 μM; read-out: residual kinase activity in % of maximal activity. Format: biochemical.

Values joined by “and” are separate entries in the source; they are usually repeats but may differ in a detail not shown here. Equal entries are not always repeated.

Chain of PKBγ(h) (Q9Y243 whole entry): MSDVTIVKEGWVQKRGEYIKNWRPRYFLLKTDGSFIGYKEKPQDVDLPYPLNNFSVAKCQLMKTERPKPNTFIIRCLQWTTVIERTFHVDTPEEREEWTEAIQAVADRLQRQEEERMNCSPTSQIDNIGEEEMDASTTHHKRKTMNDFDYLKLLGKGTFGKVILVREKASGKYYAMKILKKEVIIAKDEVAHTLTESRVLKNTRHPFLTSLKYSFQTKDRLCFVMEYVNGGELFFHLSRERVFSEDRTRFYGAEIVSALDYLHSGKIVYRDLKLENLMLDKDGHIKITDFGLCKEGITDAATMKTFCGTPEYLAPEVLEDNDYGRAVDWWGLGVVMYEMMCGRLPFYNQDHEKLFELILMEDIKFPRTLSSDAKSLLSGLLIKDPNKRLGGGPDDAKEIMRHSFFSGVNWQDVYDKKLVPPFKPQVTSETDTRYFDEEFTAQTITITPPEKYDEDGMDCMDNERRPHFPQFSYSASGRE
Chain of PDK1(h) (O15530 whole entry): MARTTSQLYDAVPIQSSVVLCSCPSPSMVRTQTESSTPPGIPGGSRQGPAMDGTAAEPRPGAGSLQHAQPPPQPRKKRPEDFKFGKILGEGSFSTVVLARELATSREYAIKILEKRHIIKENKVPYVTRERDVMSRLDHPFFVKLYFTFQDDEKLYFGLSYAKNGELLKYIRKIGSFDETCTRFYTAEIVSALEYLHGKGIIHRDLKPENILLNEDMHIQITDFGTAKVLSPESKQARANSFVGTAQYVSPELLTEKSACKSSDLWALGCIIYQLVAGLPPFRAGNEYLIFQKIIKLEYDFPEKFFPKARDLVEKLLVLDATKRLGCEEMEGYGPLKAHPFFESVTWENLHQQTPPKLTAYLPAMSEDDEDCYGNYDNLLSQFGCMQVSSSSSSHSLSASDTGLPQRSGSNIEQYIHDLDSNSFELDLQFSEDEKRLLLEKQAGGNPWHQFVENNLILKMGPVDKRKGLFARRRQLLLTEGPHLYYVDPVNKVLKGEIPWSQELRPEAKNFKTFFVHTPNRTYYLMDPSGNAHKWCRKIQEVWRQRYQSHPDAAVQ

As for `CC(C)(C)n1nc(Cc2cccc3ccccc23)c2c(N)ncnc21` [NM-PP1], in assay [1] (NM-PP1 10 μM), the “CaMKII movement after photoactivation of paCaMKII F89G” value is on record as “enabled similar movement”. In addition, the “synaptic enrichment after photoactivation (sheet 6e)” value in assay [1] (paCaMKII F89G + NM-PP1, individual neurons) is 1.231 and 1.446 and 1.136 and 1.385 and 1.127 and 1.67 and 1.6203 and 1.284 and 0.7763 and 1.224 and 1.168 and 1.296 and 1.013 and 0.919 and 1.131 and 1.135 and 1.776. In assay [2], the “effect on binding of CaMKII F89G to GluN2B in HEK cells” value is on record as “fully enabled binding”.

On to `NCCNc1cccc(-c2ccnc3[nH]c4ccccc4c23)c1` [AS283], for which the remaining activity at 1 µM on PDGFRβ(h) was 111%; at AMPKα1(h), 70%; on PDK1(h) it was 78%; on PKBγ(h) it was 42%. Moreover, the “GluN2B S1303 phosphorylation (immunoblot, normalized)” value at purified CaMKII (ATP + 10 μM AS283, 30 °C) is 25.6775% and 36.949% and 34.6383% and 24.0932%. Besides, at purified CaMKII (WT GluN2B C terminus), the “effect on CaMKII-mediated S1303 phosphorylation” value is “inhibited”. Further, the “CaMKII movement after photoactivation of paCaMKII T286A” value in assay [3] (AS283 10 μM) was “robust CaMKII movement”. The “synaptic enrichment after photoactivation (sheet 6b)” value in assay [3] (paCaMKII T286A + AS283, individual neurons) was 1.441 and 1.27 and 1.593 and 1.399 and 1.769 and 1.014 and 1.25 and 1.28 and 1.281 and 1.778.
